pIC50: −log10 of the molar value. Where two headings read alike, the source gives them in different places.
Target: T1, IL-17A/A (Homo sapiens, UniProt Q16552)
T1 sequence (Q16552 24-155): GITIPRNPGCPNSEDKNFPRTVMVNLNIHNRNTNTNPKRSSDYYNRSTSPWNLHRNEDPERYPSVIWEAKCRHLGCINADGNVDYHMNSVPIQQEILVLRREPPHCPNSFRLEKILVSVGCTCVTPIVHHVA
Test: IL-17A/A HEK-Blue Cell Assay
Assay type: cell-based
Conditions: IL-17A/A stimulation, 20 hours, SEAP readout; for IC50: HEK-Blue IL-17 reporter cells, read-out: IL17 AA HEK-5 pIC50 (converted)
Protocol: The HEK-Blue IL-17 reporter cell line (Fisher #NC1408637) was used for cell-based IL-17A/A inhibition assays. Cells were grown and prepared for assays according to the manufacturer's instructions. This cell line consists of HEK 293 cells that were designed to expressed IL-17R^A, IL-17R^C, and the ActI adapter molecule, the combination of which, when stimulated by IL-17A/A activates a NFκB promoter and drives expression of a recombinant Secreted Alkaline Phosphatase (SEAP) protein. Media from the cells is then added to a development reagent (Quanti-Blue Substrate, Fisher #NC9711613), and read at A630.
Compounds were titrated in DMSO, with a top final compound concentration of 10 uM and added to the cells immediately before adding IL-17A/A (Genscript #Z03228). The cells, compound, and IL-17A/A were then incubated for 20 hours before media was removed for SEAP analysis. The resulting inhibition curve was then analyzed using a Dotmatics screening protocol, and IC50 values were determined using a 4-parameter nonlinear fit. DMSO was added to a universal final concentration of 0.1% to optimize background. IL-17A/A inhibition data is provided in Table 1 for selected compounds.

SMILES | IC50 [nM] | pIC50 (IL17 AA HEK-5 pIC50, HEK-Blue IL-17 reporter cells)
CCC(=O)N[C@@H](C(=O)N1C[C@H]2CC[C@@H](C1)N2C)[C@@H](C)c1ccc(NC(=O)[C@@H](NC(=O)c2ccnn2CC)C(C2CC2)C2CC2)c(F)c1 [Compound 239] | < 10 | –
CCC(=O)N[C@@H](C(=O)N1CCN(C)CC1)[C@@H](C)c1ccc(NC(=O)[C@@H](NC(=O)c2ccnn2CC(F)F)C(C2CC2)C2CC2)c(F)c1 [Compound 231] | 10 to 100 | –
CCC(=O)N[C@@H](C(=O)N1CCN(C)CC1)[C@@H](C)c1ccc(NC(=O)[C@@H](NC(=O)c2ccnn2CC(F)(F)F)C(C2CC2)C2CC2)c(F)c1 [Compound 249] | 10 to 100 | –
CCn1nccc1C(=O)N[C@H](C(=O)Nc1ccc([C@H](C)[C@@H](NC(=O)CC2CC2)C(=O)N2CCN(C)[C@H](C)C2)cc1F)C(C1CC1)C1CC1 [Compound 226] | < 10 | –
CCC(=O)N[C@@H](C(=O)N1CCN(C)CC1)[C@@H](C)c1ccc(NC(=O)[C@@H](NC(=O)c2ccnn2C2CC2(F)F)C(C2CC2)C2CC2)c(F)c1 (single isomer, unassigned) [Compound 234] | < 10 | –
CCc1nonc1C(=O)N[C@H](C(=O)Nc1ccc([C@H](C)[C@@H](NC(=O)COC)C(=O)N2CCN(C)CC2)cc1F)C(C1CC1)C1CC1 [Compound 206] | < 10 | –
CCc1nonc1C(=O)N[C@H](C(=O)Nc1ccc([C@H](C)[C@@H](NC(=O)N(C)C2CC2)C(=O)N2CCN(C)CC2)cc1F)C(C1CC1)C1CC1 [Compound 224] | < 10 | –
CCOC(=O)N(C)[C@@H](C)C(=O)N[C@@H](C(=O)N1CCN(C)CC1)[C@@H](C)c1ccc(NC(=O)[C@@H](NC(=O)c2ccnn2CC)C(C2CC2)C2CC2)c(F)c1 [Compound 211] | < 10 | –
CCC(=O)N[C@@H](C(=O)N1C[C@@H](C)N(C)[C@@H](C)C1)[C@@H](C)c1ccc(NC(=O)[C@@H](NC(=O)c2nonc2CC)C(C2CC2)C2CC2)c(F)c1 [Compound 205] | < 10 | –
CCC(=O)N[C@@H](C(=O)N1CCN(C)C[C@@H]1C)[C@@H](C)c1ccc(NC(=O)[C@@H](NC(=O)c2ccnn2CC)C(C2CC2)C2CC2)c(F)c1 [Compound 208] | < 10 | –
CCOC(=O)N(C)[C@@H](C)C(=O)N[C@@H](C(=O)N1CCN(C)[C@H](C)C1)[C@@H](C)c1ccc(NC(=O)[C@@H](NC(=O)c2ccnn2CC)C(C2CC2)C2CC2)c(F)c1 [Compound 210] | < 10 | –
CCC(=O)N[C@@H](C(=O)N1CCN(C)CC1)[C@@H](C)c1ccc(NC(=O)[C@@H](NC(=O)c2ccnn2C2CC2(F)F)C(C2CC2)C2CC2)c(F)c1 (single isomer, unassigned) [Compound 233] | 10 to 100 | –
CO[C@@H](C)C(=O)N[C@@H](C(=O)N1C[C@H]2C[C@@H]1CN2C)[C@@H](C)c1ccc(NC(=O)[C@@H](NC(=O)c2ccnn2C(C)C)C(C2CC2)C2CC2)c(F)c1 [Compound 263] | 10 to 100 | –
CCn1nccc1C(=O)N[C@H](C(=O)Nc1ccc([C@H](C)[C@@H](NC(=O)CC2CC2)C(=O)N2CCN(C)CC2)cc1F)C(C1CC1)C1CC1 [Compound 227] | < 10 | –
CO[C@@H](C)C(=O)N[C@@H](C(=O)N1CCN(C)[C@H](C)C1)[C@@H](C)c1ccc(NC(=O)[C@@H](NC(=O)c2ccnn2C(C)C)C(C2CC2)C2CC2)c(F)c1 [Compound 260] | < 10 | –
CCc1nonc1C(=O)N[C@H](C(=O)Nc1ccc([C@H](C)[C@@H](NC(=O)[C@H](C)OC)C(=O)N2CCN(C)CC2)cc1F)C(C1CC1)C1CC1 [Compound 220] | < 10 | –
CCC(=O)N[C@@H](C(=O)N1CCOCC1)[C@@H](C)c1ccc(NC(=O)[C@@H](NC(=O)c2ccnn2CCF)C(C2CC2)C2CC2)c(F)c1 [Compound 251] | 10 to 100 | –
CCC(=O)N[C@@H](C(=O)N1CCN(C)CC1)[C@@H](C)c1ccc(NC(=O)[C@@H](NC(=O)c2ccnn2C2CC2)C(C2CC2)C2CC2)c(F)c1 [Compound 230] | 10 to 100 | –
CCC(=O)N[C@@H](C(=O)N1CC[C@H](N(C)C)C1)[C@@H](C)c1ccc(NC(=O)[C@@H](NC(=O)c2ccnn2C(C)C)C(C2CC2)C2CC2)c(F)c1 [Compound 265] | < 10 | –
CCC(=O)N[C@@H](C(=O)N1CCC(C)(O)CC1)[C@@H](C)c1ccc(NC(=O)[C@@H](NC(=O)c2ccnn2CCF)C(C2CC2)C2CC2)c(F)c1 [Compound 250] | < 10 | –
CCn1nccc1C(=O)N[C@H](C(=O)Nc1ccc([C@H](C)[C@@H](NC(=O)[C@H](C)OC)C(=O)N2CC[C@H](N(C)C)C2)cc1F)C(C1CC1)C1CC1 [Compound 255] | < 10 | –
CCOC(=O)N1CC[C@H]1C(=O)N[C@@H](C(=O)N1CCN(C)CC1)[C@@H](C)c1ccc(NC(=O)[C@@H](NC(=O)C2(F)CC2)C(C2CC2)C2CC2)c(F)c1 [Compound 274] | 10 to 100 | –

SMILES | IC50 [nM] | pIC50 (IL17 AA HEK-5 pIC50, HEK-Blue IL-17 reporter cells)
CCC(=O)N[C@@H](C(=O)N1CCN(C)CC1)[C@@H](C)c1ccc(NC(=O)[C@H](NC(=O)c2ccnn2CC)C(C2CC2)C2CC2)c(F)c1 [Compound 201] | 10 to 100 | –
CO[C@@H](C)C(=O)N[C@@H](C(=O)N1CCN(C)CC1)[C@@H](C)c1ccc(NC(=O)[C@@H](NC(=O)c2ccnn2C(C)C)C(C2CC2)C2CC2)c(F)c1 [Compound 259] | < 10 | –
CCC(=O)N[C@@H](C(=O)N1CCN(C)[C@H](C)C1)[C@@H](C)c1ccc(NC(=O)[C@@H](NC(=O)c2ccnn2C2CC2)C(C2CC2)C2CC2)c(F)c1 [Compound 229] | < 10 | –
CCn1nccc1C(=O)N[C@H](C(=O)Nc1ccc([C@H](C)[C@@H](NC(=O)CF)C(=O)N2CCN(C)[C@H](C)C2)cc1F)C(C1CC1)C1CC1 [Compound 228] | – | 7.00 to 8.00
CCn1nccc1C(=O)N[C@H](C(=O)Nc1ccc([C@H](C)[C@@H](NC(=O)[C@H](C)OC)C(=O)N2C[C@H]3CC[C@@H](C2)N3C)cc1F)C(C1CC1)C1CC1 [Compound 254] | < 10 | –
CCC(=O)N[C@@H](C(=O)N1CCC[C@@H](N)C1)[C@@H](C)c1ccc(NC(=O)[C@@H](NC(=O)c2ccnn2CC)C(C2CC2)C2CC2)c(F)c1 [Compound 268] | 10 to 100 | –
CCC(=O)N[C@@H](C(=O)N1CCN(C)CC1)[C@@H](C)c1ccc(NC(=O)[C@@H](NC(=O)c2ccnn2CCO)C(C2CC2)C2CC2)c(F)c1 [Compound 243] | 100 to 10000 | –
CCn1nccc1C(=O)N[C@H](C(=O)Nc1ccc([C@H](C)[C@@H](NC(=O)CCF)C(=O)N2CCN(C)CC2)cc1F)C(C1CC1)C1CC1 [Compound 218] | 10 to 100 | –
CCC(=O)N[C@@H](C(=O)N1CCN(C)C(COC)C1)[C@@H](C)c1ccc(NC(=O)[C@@H](NC(=O)c2ccnn2CC)C(C2CC2)C2CC2)c(F)c1 (single isomer, unassigned) [Compound 202] | 10 to 100 | –
CO[C@@H](C)C(=O)N[C@@H](C(=O)N1CCN(C)CC1)[C@@H](C)c1ccc(NC(=O)[C@@H](NC(=O)C2(F)CC2)C(C2CC2)C2CC2)c(F)c1 [Compound 272] | 10 to 100 | –
CCC(=O)N[C@@H](C(=O)N1CCN(C)CC1)[C@@H](C)c1ccc(NC(=O)[C@@H](NC(=O)c2ccnn2C)C(C2CC2)C2CC2)c(F)c1 [Compound 247] | 10 to 100 | –
CCC(=O)N[C@@H](C(=O)N1CC[C@@H](N(C)C)C1)[C@@H](C)c1ccc(NC(=O)[C@@H](NC(=O)c2ccnn2CC)C(C2CC2)C2CC2)c(F)c1 [Compound 242] | 10 to 100 | –
CCC(=O)N[C@@H](C(=O)N1CCOCC1)[C@@H](C)c1ccc(NC(=O)[C@@H](NC(=O)c2ccnn2CCN2CCOCC2)C(C2CC2)C2CC2)c(F)c1 [Compound 253] | 100 to 10000 | –
CCC(=O)N[C@@H](C(=O)N1C[C@@H]2C[C@H]1CN2C)[C@@H](C)c1ccc(NC(=O)[C@@H](NC(=O)c2ccnn2CC)C(C2CC2)C2CC2)c(F)c1 [Compound 235] | 10 to 100 | –
CCC(=O)N[C@@H](C(=O)N1CCN(C)[C@H](C)C1)[C@@H](C)c1ccc(NC(=O)[C@@H](NC(=O)c2ccnn2CC(F)(F)F)C(C2CC2)C2CC2)c(F)c1 [Compound 248] | 10 to 100 | –
CCC(=O)N[C@@H](C(=O)N1C[C@H]2C[C@@H]1CN2C)[C@@H](C)c1ccc(NC(=O)[C@@H](NC(=O)c2ccnn2CC)C(C2CC2)C2CC2)c(F)c1 [Compound 236] | 10 to 100 | –
CO[C@@H](C)C(=O)N[C@@H](C(=O)N1CC[C@H](N(C)C)C1)[C@@H](C)c1ccc(NC(=O)[C@@H](NC(=O)c2ccnn2C(C)C)C(C2CC2)C2CC2)c(F)c1 [Compound 262] | < 10 | –
CCC(=O)N[C@@H](C(=O)N1CC[C@H](N(C)C)C1)[C@@H](C)c1ccc(NC(=O)[C@@H](NC(=O)c2ccnn2CC)C(C2CC2)C2CC2)c(F)c1 [Compound 240] | 10 to 100 | –
CCC(=O)N[C@@H](C(=O)N1CCC(C)(O)CC1)[C@@H](C)c1ccc(NC(=O)[C@@H](NC(=O)c2ccnn2CCN2CCOCC2)C(C2CC2)C2CC2)c(F)c1 [Compound 252] | 10 to 100 | –
CCC(=O)N[C@@H](C(=O)N1C[C@H]2CN(C)C[C@H]2C1)[C@@H](C)c1ccc(NC(=O)[C@@H](NC(=O)c2ccnn2CC)C(C2CC2)C2CC2)c(F)c1 [Compound 237] | 100 to 10000 | –
CO[C@@H](C)C(=O)N[C@@H](C(=O)N1C[C@H]2CC[C@@H](C1)N2C)[C@@H](C)c1ccc(NC(=O)[C@@H](NC(=O)c2ccnn2C(C)C)C(C2CC2)C2CC2)c(F)c1 [Compound 261] | < 10 | –
CCC(=O)N[C@@H](C(=O)N1CCN(C)[C@H](C)C1)[C@@H](C)c1ccc(NC(=O)[C@@H](NC(=O)c2ccnn2CCO)C(C2CC2)C2CC2)c(F)c1 [Compound 244] | 100 to 10000 | –

From patent US20250177383A1, “DI-CYCLOPROPYL BASED IL-17A MODULATORS AND USES THEREOF” (DICE ALPHA, INC., priority 2022, published 2025)
